In article PMC5750218, “Protein-inspired antibiotics active against vancomycin- and daptomycin-resistant bacteria” (Nature Communications, 2018):
In brackets after ≈: the same amount, converted by molar mass. Several values for one entry are separate records, joined by “and”; a condition that tells them apart may be missing. Equal values may be shown once. Positions of bridges follow the written chain, without caps; N, C: chain ends. Residues, ends and D or L forms follow the SMILES beside them. Chains are numbered I, II in the order given. *: point of attachment. Myristoyl = CCCCCCCCCCCCCC(=O)*

What was measured:
Test in all cases: microbe, parasite or virus in culture
[1] = test system: Methicillin-resistant S. aureus ATCC 43300
Method: (§1) Antimicrobial activity of compounds was tested against a number of bacterial strains by broth microdilution (BMD) assay with MIC determination, including S. aureus (MSSA ATCC® 29213™, MRSA ATCC® 43300™, VISA NARSA NRS1, VISA NARSA NRS4), Streptococcus pneumoniae (MDR ATCC® 700677™) and Enterococcus faecium (MDR VanA ATCC® 51559™). ATCC strains were sourced from the American Type Culture Collection and NRS strains from NARSA (Network on Antimicrobial Resistance in S. aureus) via BEI Resources (www.beiresources.org). All compounds were prepared to 160 µg mL^−1 solution in water from a stock solution of 1 mM concentration.
[…] […] Standards ranged from 64 to 0.03 µg mL^−1 and compounds from 8 to 0.003 µg mL^−1 with final assay volumes of 100 µL per well. Gram-positive bacteria were cultured in Mueller Hinton broth (MHB) (Bactolaboratories, Cat. no. 211443) at 37 °C overnight. A sample of each culture was then diluted 40-fold in fresh MHB and incubated at 37 °C for 2–3 h. […] All the plates were covered and incubated at 37 °C for 24 h. MICs were the lowest concentration showing no visible growth.

[2] = test system: Multi-drug-resistant S. pneumoniae ATCC 700677
Method: as §1
(§2) The compounds, along with standard antibiotics were serially diluted twofold across the wells of 96-well non-binding surface (NBS) polystyrene plates (Corning 3641). […] Standards ranged from 64 to 0.03 µg mL^−1 and compounds from 8 to 0.003 µg mL^−1 with final assay volumes of 100 µL per well. Gram-positive bacteria were cultured in Mueller Hinton broth (MHB) (Bactolaboratories, Cat. no. 211443) at 37 °C overnight. A sample of each culture was then diluted 40-fold in fresh MHB and incubated at 37 °C for 2–3 h. […] All the plates were covered and incubated at 37 °C for 24 h. MICs were the lowest concentration showing no visible growth.

[3] = test system: Vancomycin-intermediate S. aureus NRS1
Method: as §1, §2

[4] = test system: Vancomycin-resistant (VanA) Enterococcus faecium ATCC 51559
Method: as §1, §2

Row | Compound | MIC MRSA ([1]; ATCC 43300, 24 h) [µg/mL] | MIC MDR S.P. ([2]; ATCC 700677) [µg/mL] | MIC VISA ([3]; Vancomycin-intermediate NRS1) [µg/mL] | MIC VRE ([4]; ATCC 51559) [µg/mL] | MIC MRSA ([1]; S. aureus ATCC 43300, NBS plates, MHB, 24 h, substance alone) | MIC MDR S.P. ([2]; S. pneumoniae ATCC 700677) | MIC VISA ([3]; S. aureus NRS1) | MIC VRE ([4]; E. faecium MDR VanA ATCC 51559, substance alone) [µg/mL]
1 | CCCCCCCCCCCCC(=O)N[C@@H](CCCCN)C(=O)N[C@@H](CCCCN)C(=O)N[C@@H](CCCCN)C(=O)N[C@@H](CCCCNC(=O)[C@H]1NC(=O)[C@H]2NC(=O)[C@H](NC(=O)[C@@H]3NC(=O)[C@H](CC(N)=O)NC(=O)[C@H](NC(=O)[C@@H](CC(C)C)NC)[C@H](O)c4ccc(c(Cl)c4)Oc4cc3cc(c4O[C@@H]3O[C@H](CO)[C@@H](O)[C@H](O)[C@H]3O[C@H]3C[C@](C)(N)[C@H](O)[C@H](C)O3)Oc3ccc(cc3Cl)[C@H]2O)c2ccc(O)c(c2)-c2c(O)cc(O)cc21)C(=O)O [Compound 38, nC12CO-KKK-K-(Vancomycin)-OH] | <0.003 | <0.003 | 0.03 (≈ 0.0139 µM) | 0.1875 (≈ 0.0869 µM) |  |  |  | 
2 | CNC(=O)[C@H](CCCNC(=O)[C@H]1NC(=O)[C@H]2NC(=O)[C@H](NC(=O)[C@@H]3NC(=O)[C@H](CC(N)=O)NC(=O)[C@H](NC(=O)[C@@H](CC(C)C)NC)[C@H](O)c4ccc(c(Cl)c4)Oc4cc3cc(c4O[C@@H]3O[C@H](CO)[C@@H](O)[C@H](O)[C@H]3O[C@H]3C[C@](C)(N)[C@H](O)[C@H](C)O3)Oc3ccc(cc3Cl)[C@H]2O)c2ccc(O)c(c2)-c2c(O)cc(O)cc21)NC(=O)[C@H](CCCCN)NC(=O)[C@H](CCCCN)NC(=O)[C@H](CCCCNC(=O)c1ccc(Oc2ccccc2)cc1)NC(=O)c1ccc(Oc2ccccc2)cc1 [Compound 35, POB2K-KK-Orn(Vancomycin)-NHMe] | <0.003 | 0.005 (≈ 0.00212 µM) | 0.25 (≈ 0.106 µM) | 1.25 (≈ 0.531 µM) |  |  |  | 
3 | CCCCCCCCCCCCCC(=O)NCC(=O)N[C@@H](CO)C(=O)N[C@@H](CO)C(=O)N[C@@H](CCCCN)C(=O)N[C@@H](CO)C(=O)N1CCC[C@H]1C(=O)N[C@@H](CO)C(=O)N[C@@H](CCCCN)C(=O)N[C@@H](CCCCN)C(=O)N[C@@H](CCCCN)C(=O)N[C@@H](CCCCN)C(=O)N[C@@H](CCCCN)C(=O)N[C@@H](CCCCN)C(=O)N1CCC[C@H]1C(=O)NCC(=O)N[C@@H](CC(=O)O)C(=O)N[C@@H](CS)C(N)=O [Compound 8a] (Myristoyl-GSSKSPSKKKKKKPGDC-NH2) | >8 |  |  | >8 |  |  |  | 
4 | CCCCCCCCCCCCCC(=O)NCC(=O)N[C@@H](CO)C(=O)N[C@@H](CCCCN)C(=O)N[C@@H](CCCCN)C(=O)N[C@@H](CCCCN)C(=O)N[C@@H](CS)C(=O)O [Compound 14a, Myristoyl-GSKKKC-OH] (Myristoyl-GSKKKC-OH) | >8 |  |  | >8 |  |  |  | 
5 | CNC(=O)[C@H](CCCCNC(=O)[C@H]1NC(=O)[C@H]2NC(=O)[C@H](NC(=O)[C@@H]3NC(=O)[C@H](CC(N)=O)NC(=O)[C@H](NC(=O)[C@@H](CC(C)C)NC)[C@H](O)c4ccc(c(Cl)c4)Oc4cc3cc(c4O[C@@H]3O[C@H](CO)[C@@H](O)[C@H](O)[C@H]3O[C@H]3C[C@](C)(N)[C@H](O)[C@H](C)O3)Oc3ccc(cc3Cl)[C@H]2O)c2ccc(O)c(c2)-c2c(O)cc(O)cc21)NC(=O)[C@H](CCN)NC(=O)[C@H](CCCCN)NC(=O)[C@H](CCCCNC(=O)c1ccc(Oc2ccccc2)cc1)NC(=O)c1ccc(Oc2ccccc2)cc1 [Compound 30, POB2K-K-Dab-K(Vancomycin)-NHMe] | <0.003 | <0.003 | 0.0925 (≈ 0.0395 µM) | 0.75 (≈ 0.321 µM) |  |  |  | 
6 | CNC(=O)[C@H](CCCCNC(=O)[C@H]1NC(=O)[C@H]2NC(=O)[C@H](NC(=O)[C@@H]3NC(=O)[C@H](CC(N)=O)NC(=O)[C@H](NC(=O)[C@@H](CC(C)C)NC)[C@H](O)c4ccc(c(Cl)c4)Oc4cc3cc(c4O[C@@H]3O[C@H](CO)[C@@H](O)[C@H](O)[C@H]3O[C@H]3C[C@](C)(N)[C@H](O)[C@H](C)O3)Oc3ccc(cc3Cl)[C@H]2O)c2ccc(O)c(c2)-c2c(O)cc(O)cc21)NC(=O)[C@H](CCCCN)NC(=O)[C@@H](CCCCN)NC(=O)[C@H](CCCCNC(=O)c1ccc(Oc2ccccc2)cc1)NC(=O)c1ccc(Oc2ccccc2)cc1 [Compound 26] | <0.003 | <0.003 | 0.19 (≈ 0.0803 µM) | 1.5 (≈ 0.634 µM) |  |  |  | 
7 | CCCCCCCCCCCCCC(=O)NCC(=O)N[C@@H](CO)C(=O)N[C@@H](CO)C(=O)N[C@@H](CCCCN)C(=O)N[C@@H](CO)C(=O)N1CCC[C@H]1C(=O)N[C@@H](CO)C(=O)N[C@@H](CCCCN)C(=O)N[C@@H](CCCCN)C(=O)N[C@@H](CCCCN)C(=O)N1CCC[C@H]1C(=O)N[C@@H](CS)C(N)=O [Compound 12a] (Myristoyl-GSSKSPSKKKPC-NH2) | >8 |  |  | >8 |  |  |  | 
8 | CNC(=O)[C@H](CCCCNC(=O)[C@H]1NC(=O)[C@H]2NC(=O)[C@H](NC(=O)[C@@H]3NC(=O)[C@H](CC(N)=O)NC(=O)[C@H](NC(=O)[C@@H](CC(C)C)NC)[C@H](O)c4ccc(c(Cl)c4)Oc4cc3cc(c4O[C@@H]3O[C@H](CO)[C@@H](O)[C@H](O)[C@H]3O[C@H]3C[C@](C)(N)[C@H](O)[C@H](C)O3)Oc3ccc(cc3Cl)[C@H]2O)c2ccc(O)c(c2)-c2c(O)cc(O)cc21)NC(=O)[C@H](CCCCN)NC(=O)[C@H](CCN)NC(=O)[C@H](CCCCNC(=O)c1ccc(Oc2ccccc2)cc1)NC(=O)c1ccc(Oc2ccccc2)cc1 [Compound 31, POB2K-Dab-K-K(Vancomycin)-NHMe] | <0.003 | <0.003 | 0.0925 (≈ 0.0395 µM) | 0.375 (≈ 0.16 µM) |  |  |  | 
9 | POB2K-Dap-K-K(Vancomycin)-NHMe [Compound 28] |  |  |  |  | <0.003 µg/mL and 0.0045 µg/mL | 0.015 µg/mL and 0.011 µg/mL | 0.125 µg/mL and 0.155 µg/mL | 0.75
10 | CNC(=O)[C@H](CCCCNC(=O)[C@H]1NC(=O)[C@H]2NC(=O)[C@H](NC(=O)[C@@H]3NC(=O)[C@H](CC(N)=O)NC(=O)[C@H](NC(=O)[C@@H](CC(C)C)NC)[C@H](O)c4ccc(c(Cl)c4)Oc4cc3cc(c4O[C@@H]3O[C@H](CO)[C@@H](O)[C@H](O)[C@H]3O[C@H]3C[C@](C)(N)[C@H](O)[C@H](C)O3)Oc3ccc(cc3Cl)[C@H]2O)c2ccc(O)c(c2)-c2c(O)cc(O)cc21)NC(=O)[C@H](CN)NC(=O)[C@H](CN)NC(=O)[C@H](CCCCNC(=O)c1ccc(Oc2ccccc2)cc1)NC(=O)c1ccc(Oc2ccccc2)cc1 [Compound 29, POB2K-Dap-Dap-K(Vancomycin)-NHMe] | 0.0045 (≈ 0.00197 µM) | 0.0085 (≈ 0.00372 µM) | 0.0925 (≈ 0.0405 µM) | 0.75 (≈ 0.328 µM) |  |  |  | 
11 | CCCCCCCCCCCCCC(=O)N[C@@H](CCCCN)C(=O)N[C@@H](CCCCN)C(=O)N[C@@H](CCCCN)C(=O)N[C@@H](CSSC[C@H](NC(=O)[C@H](CCCCN)NC(=O)[C@H](CCCCN)NC(=O)[C@H](CCCCN)NC(=O)CCCCCCCCCCCCC)C(=O)O)C(=O)O [Compound 15a, Myristoyl-KKKC-OH – disulphide dimer] (I: Myristoyl-KKKC-OH / II: Myristoyl-KKKC-OH; disulfide I:4-II:4) | >8 |  |  | >8 |  |  |  | 
12 | CCCCCCCCCCCCCC(=O)NCC(=O)N[C@@H](CO)C(=O)N[C@@H](CCCCN)C(=O)N[C@@H](CCCCN)C(=O)N[C@@H](CCCCN)C(=O)N[C@@H](CS)C(N)=O [Compound 13a, Myristoyl-GSKKKC-NH 2] (Myristoyl-GSKKKC-NH2) | >8 |  |  | >8 |  |  |  | 
13 | CNC(=O)[C@H](CCCCNC(=O)[C@H]1NC(=O)[C@H]2NC(=O)[C@H](NC(=O)[C@@H]3NC(=O)[C@H](CC(N)=O)NC(=O)[C@H](NC(=O)[C@@H](CC(C)C)NC)[C@H](O)c4ccc(c(Cl)c4)Oc4cc3cc(c4O[C@@H]3O[C@H](CO)[C@@H](O)[C@H](O)[C@H]3O[C@H]3C[C@](C)(N)[C@H](O)[C@H](C)O3)Oc3ccc(cc3Cl)[C@H]2O)c2ccc(O)c(c2)-c2c(O)cc(O)cc21)NC(=O)[C@H](CCCN)NC(=O)[C@H](CCCCN)NC(=O)[C@H](CCCCNC(=O)c1ccc(Oc2ccccc2)cc1)NC(=O)c1ccc(Oc2ccccc2)cc1 [Compound 32, POB2K-K-Orn-K(Vancomycin)-NHMe] | <0.003 | <0.003 | 0.0375 (≈ 0.0159 µM) | 1 (≈ 0.425 µM) |  |  |  | 
